# Results as given in patent publication US20090082427A1, “Composition comprising wortmannin and its topical use for reducing human hair growth” (Reckitt Benckiser (UK) Limited, priority 2005, published 2009).
# Assays:
# Assay type in all cases: cell-based, human
# dermal fibroblasts = assay: cell proliferation of dermal fibroblasts, cell number after 8 days; conditions: wortmannin 70 μm in medium, CV (medium + DMSO vehicle) = 100
# Procedure: (§1) A study was carried out to assess the effects of wortmannin on cell proliferation for dermal fibroblasts, follicular dermal papilla fibroblasts derived from 5 normal adults (3 females and 2 males).
# (§2) A composition was prepared comprising wortmannin at 10 milli-molar in a vehicle of dimethyl sulfoxide (DMSO). The levels of wortmannin were such that when the composition was added to the growth medium in the experiments, the level of wortmannin in the experimental medium was 50, 70, 100 or 140 micro-molar and the respective level of DMSO was 0.5%, 0.7%, 1.0%, 1.4% by weight.
# (§3) The control experiments were carried out using as the growth medium CM (control medium only as detailed below) and CV (control medium containing the DMSO vehicle but free of wortmannin). The experiments using the wortmannin composition were carried out using the wortmannin compositions in the control medium.
# (§4) For experiments with dermal fibroblasts and follicular dermal papilla fibroblasts, Control Medium was RPMI 1640 media supplemented with penicillin/streptomycin, L-glutamine and Foetal Calf Serum.
# (§5) Results in terms of percentage cell number change after 8 days of the cells/follicles in the compositions were as follows in table 1.
# [1] = tested on: follicular dermal papilla fibroblasts; assay: cell proliferation of follicular dermal papilla fibroblasts, cell number after 8 days; conditions: wortmannin 70 μm in medium, CV = 100
# Procedure: as §1, §2, §3, §4, §5
# [2] = tested on: hair follicle keratinocytes; assay: cell proliferation of hair follicle keratinocytes, cell number after 8 days; conditions: CV = 100
# Procedure: A study carried out to assess the effects of wortmannin on cell proliferation for hair follicle keratinocytes was performed on cells from 1 normal healthy individual.
# as §2, §3
# For experiments with hair follicle keratinocytes, Control Medium was keratinocyte serum-free medium (KSF-M) medium supplemented with penicillin/streptomycin, L-glutamine, epidermal growth factor and bovine pituitary extract.
# as §5
# [3] = tested on: Anagen (IV) intact hair follicles; assay: growth of isolated intact Anagen (IV) hair follicles, length increase after 8 days; conditions: CM 26, CV 9
# Procedure: A study was carried out to assess the effects of wortmannin on growth of Anagen (IV) intact hair follicles isolated intact from 2 females.
# as §2, §3
# For experiments with intact hair follicle, Control Medium was Williams E medium supplemented with fungizone, penicilin/streptomycin, L-glutamine, insulin-like growth factor and hydrocortisone.
# as §5
smiles,measurement,setting,value
"COC[C@H]1OC(=O)c2coc3c2[C@@]1(C)C1=C(C3=O)[C@@H]2CCC(=O)[C@@]2(C)C[C@H]1OC(C)=O [wortmannin, 11-(acetyloxy)-1,6b,7,8,9a,10,11,11b-octahydro-1-(methoxymethyl)-9a,11b-di-methyl-[1S-(1α, 6bα,9aβ,11α, 11bβ)]-3H-furo[4,3,2-de]indeno[4,5-h]-2-benzopyran-3,6,9-trione]",Dermal fibroblasts percentage cell number (normalized on CV results),dermal fibroblasts,25%
same,dermal papilla fibroblasts percentage cell number (normalized on CV results),[1],34%
same,Hair follicle keratinocytes percentage cell number (normalized on CV results),[2]; wortmannin 50 μm in medium,75%
same,Hair follicle keratinocytes percentage cell number (normalized on CV results),[2]; wortmannin 70 μm in medium,40%
same,Hair follicle keratinocytes percentage cell number (normalized on CV results),[2]; wortmannin 100 μm in medium,30%
same,Whole hair follicles (length increase in %),[3]; wortmannin 70 μm in medium,4%
same,Whole hair follicles (length increase in %),[3]; wortmannin 140 μm in medium,4%
